From patent US4740521A, “Saudin, a novel hypoglycemic agent” (Purdue Research Foundation, priority 1986, dated 1988)

What was measured:
[1] = tested on: blood sugar level of fasting mice (alloxanized); test: blood sugar level of fasting alloxanized mice (Table 3); format: in vivo; settings: for Blood Sugar Level, mean S.E., 1 h: control 327 ± 46; for Blood Sugar Level, mean S.E., 2 h: control 360 ± 50; for Blood Sugar Level, mean S.E., 3 h: control 355 ± 48.5; for Blood Sugar Level, mean S.E., 4 h: control 378 ± 51.5; for Blood Sugar Level, mean S.E., 5 h: control 377 ± 57.5
Procedure: It is possible, therefore, that saudin operates by a different mechanism than the hypoglycemic agents heretofore employed, and may for that reason find unique application in medicine. The results of comparative tests are given in the following Table 3, using mice injected intravenously with 50 mg/kg of alloxan 3 days before the tests.

in vivo = settings: mouse, ip
Text: When suspended in carboxymethylcellulose (1.5%) and injected i.p. into mice according to the method of Miller and Tainter, Proc. Soc.

[2] = tested on: plasma glucose level of non-fasted rats; test: plasma glucose level of non-fasted rats after I.P. injection (Table 1); format: in vivo, rats (male albino); settings: 40 mg/kg I.P.
Procedure: (§1) Male albino rats weighing from 100-150 gm were divided into groups each comprised from 7-8 rats. […] Non-fasted and fasted rats were either non-alloxanized or injected I.V. with alloxan at a dose of 40 mg/kg two days before administration of saudin. Saudin was injected I.P. in the experiment groups in a suspension form containing 0.5% carboxymethylcellulose (CMC). Control groups received I.P. injection of 0.5% CMD at a dose not exceeding 1 ml/100 gm (Maximum volume used to suspend saudin). Blood samples were taken and the plasma glucose level was estimated as indicated in the results. The method used for glucose estimation was similar to that used by Free et al., Advances in Clinical Chemistry, E. H. Sobotaka and C. P. Steward (eds.), Academic Press, New York, 6, p. 67 (1973).
non-fasted rats in response to I.P. injection of
40 mg/kg. Blood samples were taken at 1 h intervals
in heparinized tubes and plasma was separated for […]

[3] = tested on: plasma glucose level of alloxanized and non-alloxanized rats; test: plasma glucose level of alloxanized and non-alloxanized rats, fasted or non-fasted (Table 2); format: in vivo, rats (male albino)
Procedure: as §1
Effect of saudin on the plasma glucose level of alloxanized and
non-alloxanized rats either fasted
or non-fasted. Blood samples were taken 2 hours after saudin injection in
tubes containing heparin.
Plasma was separated for glucose estimation.

animals = test: hypoglycemic effect in animals on injection (general statement); format: in vivo; settings: read-out: dose producing a significant hypoglycemic effect, by injection, "above about"
Procedure: For the control of hyperglycemia, a dose between about 25 and about 110 mg/kg is effective, when administered at intervals of about 2 to about 12 hours in a tissue-compatible liquid. Normal saline solution is a suitable solvent diluent, or alternatively aqueous carboxymethylcellulose.

[4] = fasting mice, 50 mg/kg alloxan i.v. 3 days before, saudin 40 mg/kg, tolbutamide 150 mg/kg

## CCCCNC(=O)NS(=O)(=O)c1ccc(C)cc1 [tolbutamide, reference compound]
[1]; [4]
  Blood Sugar Level, mean S.E., 1 h: 185 ± 36 mg %
  Blood Sugar Level, mean S.E., 2 h: 212 ± 40.4 mg %
  Blood Sugar Level, mean S.E., 3 h: 235 ± 40.8 mg %
  Blood Sugar Level, mean S.E., 4 h: 262 ± 54 mg %
  Blood Sugar Level, mean S.E., 5 h: 347 ± 64 mg %

## C[C@H]1C(=O)O[C@]23CC[C@]4(C)C(=O)OC[C@@]45O[C@](c4ccoc4)(C[C@@H]1[C@@]25C)O3 [saudin, (-)-(1R,4R,5S,7R,9S,13S,16R) -7-(3-furanyl)-4,13,16-trimethyl-2,8,11,17-tetraoxapentacyclo [7.6.1.1^1,7.0^5,16.0^9,13]heptadeca-3,12-dione]
In vivo
  LD50: 500 ± 15.8 mg/kg
[2]; non-alloxanized fed rats, two hours after injection
  hypoglycemic effect (in words): significant hypoglycemic effect
[2]; non-fasted, non-alloxanized rats, 0 h, control 113.63 ± 7.50, saudin S.E. 3.05
  Plasma glucose level, S.E., 0 h: 109.75 mg/dL
[2]; non-fasted, non-alloxanized rats, 1 h, control 115.25 ± 5.78, saudin S.E. 4.45
  Plasma glucose level, S.E., 1 h: 127.86 mg/dL
[2]; non-fasted, non-alloxanized rats, 2 h, control 126.75 ± 4.62, saudin S.E. 2.31*, significant vs control at P < 0.01
  Plasma glucose level, S.E., 2 h: 107.00 mg/dL
[2]; non-fasted, non-alloxanized rats, 3 h, control 105.00 ± 3.23, saudin S.E. 3.78
  Plasma glucose level, S.E., 3 h: 97.00 mg/dL
[2]; non-fasted, non-alloxanized rats, 4 h, control 104.73 ± 4.11, saudin S.E. 4.81
  Plasma glucose level, S.E., 4 h: 98.00 mg/dL
[3]; alloxanized (40 mg/kg alloxan I.V. 2 days before) fasted rats, 2 hours after saudin injection, control 116.66 ± 6.64, saudin S.E. 4.45
  Plasma glucose level, S.E., alloxanized fasted, Exp.: 103.5 mg/dL
[3]; alloxanized (40 mg/kg alloxan I.V. 2 days before) non-fasted rats, 2 hours after saudin injection, control 141.2 ± 3.43, saudin S.E. 10.78
  Plasma glucose level, S.E., alloxanized non-fasted, Exp.: 142.8 mg/dL
[3]; fasted alloxanized and non-alloxanized rats, fed alloxanized rats
  effect on plasma glucose levels (in words): did not alter the plasma glucose levels
[3]; non-alloxanized fasted rats, 2 hours after saudin injection, control 81.14 ± 4.31, saudin S.E. 3.05
  Plasma glucose level, S.E., non-alloxanized fasted, Exp.: 79.86 mg/dL
[3]; non-alloxanized non-fasted rats, 2 hours after saudin injection, control 132.14 ± 3.82, saudin S.E. 2.22*, significant vs control at P < 0.01
  Plasma glucose level, S.E., non-alloxanized non-fasted, Exp.: 111.85 mg/dL
[1]; alloxanized mice, unlike tolbutamide
  hypoglycemic effect in alloxanized mice (in words): does not produce a hypoglycemic effect
[1]; fasting mice, 50 mg/kg alloxan i.v. 3 days before, saudin 40 mg/kg, tolbutamide 150 mg/kg, 0 h, control 230 ± 40
  Blood Sugar Level, mean S.E., 0 h: 222 ± 25 mg %
[1]; [4]
  Blood Sugar Level, mean S.E., 1 h: 288 ± 48.5 mg %
  Blood Sugar Level, mean S.E., 2 h: 346 ± 55.4 mg %
  Blood Sugar Level, mean S.E., 3 h: 342 ± 55.4 mg %
  Blood Sugar Level, mean S.E., 4 h: 355 ± 54.3 mg %
  Blood Sugar Level, mean S.E., 5 h: 443 ± 62.7 mg %
animals
  minimal effective dose: > 10 mg/kg
